Assays:
Beta-secretase 1 [1] = target: T1, Beta-secretase 1 (Homo sapiens, UniProt P56817); test: Inhibition of BACE1 (unknown origin) using Rh-EVNLDAEFK-Quencher as substrate after 60 mins by FRET assay
Beta-secretase 1 [2] = target: T1, Beta-secretase 1; test: Inhibition of BACE1 (unknown origin) at 50 uM using Rh-EVNLDAEFK-Quencher as substrate after 60 mins by FRET assay relative to control
Beta-secretase 1 [3] = target: T1, Beta-secretase 1; test: Binding affinity to BACE1 (unknown origin) by SPR method
[4] = Cytotoxicity against HEK293 cells assessed as decrease in cell viability after 72 hrs by CellTiter Glo luminescent assay; assay type: cell-based; settings: human
Beta-secretase 1 [5] = target: T1, Beta-secretase 1; test: Inhibition of BACE1 (unknown origin) at 10 uM using Rh-EVNLDAEFK-Quencher as substrate after 60 mins by FRET assay relative to control
in vitro = settings: PAMPA
Description: Permeability of the compound at 25 ug/ml after 18 hrs by PAMPA

Beta-secretase 1 [6] = target: T1, Beta-secretase 1; test: Inhibition of BACE1 (unknown origin) at 1 uM using Rh-EVNLDAEFK-Quencher as substrate after 60 mins by FRET assay

T1 sequence (P56817 whole entry): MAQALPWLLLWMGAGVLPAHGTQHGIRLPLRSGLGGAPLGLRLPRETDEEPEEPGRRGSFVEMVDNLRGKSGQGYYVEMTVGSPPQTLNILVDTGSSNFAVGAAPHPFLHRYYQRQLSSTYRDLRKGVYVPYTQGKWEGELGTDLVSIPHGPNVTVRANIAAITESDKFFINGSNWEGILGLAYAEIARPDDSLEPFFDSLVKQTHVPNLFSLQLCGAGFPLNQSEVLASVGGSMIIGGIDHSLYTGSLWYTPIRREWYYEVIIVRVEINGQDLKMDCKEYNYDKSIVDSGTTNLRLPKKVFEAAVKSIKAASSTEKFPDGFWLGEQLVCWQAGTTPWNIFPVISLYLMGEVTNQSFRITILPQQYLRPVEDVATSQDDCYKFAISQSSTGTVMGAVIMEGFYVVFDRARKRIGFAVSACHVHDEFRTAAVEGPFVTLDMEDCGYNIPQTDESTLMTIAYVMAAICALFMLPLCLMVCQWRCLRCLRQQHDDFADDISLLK

Compound	IC50 (Beta-secretase 1 [1]) [µM]	inhibition (Beta-secretase 1 [2]) [%]	Kd (Beta-secretase 1 [3]) [µM]	inhibition (Beta-secretase 1 [5]) [%]	Papp at 18 h, 25 ug/ml (in vitro) [×10⁻⁶ cm/s]	inhibition (Beta-secretase 1 [6]) [%]	CC50 at 72 h [4] [µM]
N#Cc1c(-c2cccc(C(F)(F)F)c2)nc(SCC(=O)Nc2nc(-c3cc(Cl)c(N)c(Cl)c3)cs2)[nH]c1=O	13.4	86.1	1.33	13	0.88		47.7
CN[C@@H]1C[C@H]2O[C@@](C)([C@@H]1OC)n1c3ccccc3c3c4c(c5c6ccccc6n2c5c31)C(=O)NC4 [STAUROSPORINE]							0.00354
COc1cccc(-c2nc(SCC(=O)Nc3nc(-c4cc(Cl)c(N)c(Cl)c4)c[nH]3)[nH]c(=O)c2C#N)c1	3.2		0.169	87.7	0.34	26.4	> 50
Clc1cccc(Cl)c1N=C1NCCN1 [CLONIDINE]					5.9		

Second part, led by results:

IC50 (Beta-secretase 1 [1]) [µM]	inhibition (Beta-secretase 1 [2]) [%]	Kd (Beta-secretase 1 [3]) [µM]	inhibition (Beta-secretase 1 [5]) [%]	Papp at 18 h, 25 ug/ml (in vitro) [×10⁻⁶ cm/s]	inhibition (Beta-secretase 1 [6]) [%]	Compound	CC50 at 72 h [4] [µM]
17.5	90.4	1.74	14.3	0.94		COc1cccc(-c2nc(SCC(=O)Nc3nc(-c4cccc(Br)c4)cs3)[nH]c(=O)c2C#N)c1	> 50
	39.6		6.1			N#Cc1c(-c2cccc(OC(F)(F)F)c2)nc(SCC(=O)Nc2nc(-c3cc(Cl)c(N)c(Cl)c3)cs2)[nH]c1=O	
	1.4		0.3			COc1cccc(-c2nc(SCC(=O)Nc3nc(-c4cc(Cl)c(NC(C)=O)c(Cl)c4)cs3)[nH]c(=O)c2C#N)c1	
7.7	91.8	0.861	58.9	0.11		COc1cccc(-c2nc(SCC(=O)Nc3nc(-c4cc(Cl)c(N)c(Cl)c4)cs3)[nH]c(=O)c2C#N)c1	> 50
13.5	79.9		24.5	0.07		CCOc1cccc(-c2nc(SCC(=O)Nc3nc(-c4cc(Cl)c(N)c(Cl)c4)cs3)[nH]c(=O)c2C#N)c1	> 50
	4.7		2.5			CCOc1cccc(-c2nc(SCC(=O)Nc3nc(-c4cc(Cl)c(NC(C)=O)c(Cl)c4)cs3)[nH]c(=O)c2C#N)c1	

From ChEMBL document CHEMBL4118072, “2-Substituted-thio-N-(4-substituted-thiazol/1H-imidazol-2-yl)acetamides as BACE1 inhibitors: Synthesis, biological evaluation and docking studies” (Eur J Med Chem, 2017)
